# From patent US5481043A, “Phenone compounds, manufacturing method and pharmaceutical preparations containing them” (priority 1991, dated 1996)
# Experiments:
# [1] = tested on: PAF-induced bronchial asthma; assay: Asthma-protective action in guinea pigs: PAF-induced bronchial asthma (inhalation, dual-chamber body plethysmograph); type: in vivo, guinea pig; details: for effects on PAF-induced and allergic reactions compared with androsin (in words): PAF-induced and allergic (ovalbumin) reactions
# Method: (§1) b) Asthma-protective action of the acetophenone compound in guinea pigs.
# (§2) Male white "Pirbright" guinea pigs were sensitized to ovalbumin by means of the well-known methods. Inhalation experiments were conducted 4 to 6 weeks later.
# (§3) Spontaneously breathing animals were placed in a dual-chamber body plethysmograph in which the two chambers were separated around the head of the animals by a rubber collar filled with water. Changes in volume in the two chambers were measured by means of pressure transfer systems. The degree of bronchial obstruction was determined by means of the parameter, "compressed air". This technique is ten times more sensitive than other invasive methods (Dorsch et al., Pflugers Arch., 1981, 391: 236 to 241).
# (§4) Groups of 10 to 14 animals were divided into two sub-groups and either treated with the test substance or with a solution. Three or four days later the experiments were repeated with those animals which had previously been given the control being given the test substance and vice-versa (each animal was once given either the test substance or the solvent).
# Ovalbumin, histamine and acetylcholine were dissolved in saline solution; PAF was first dissolved in ethanol and then in saline solution containing 0.25% of bovine serum albumin to a final concentration of 1 μg PAF per ml. Ovalbumin, PAF, histamine and acetylcholine were administered in the form of an aerosol produced by ultrasound.
# The effect of the test substance on the PAF-induced hyperreactivity was studied by means of successive inhalation of histamine, PAF and histamine. One group of animals was divided into two sub-groups with both sub-groups inhaling histamine in a dose leading to moderate bronchial obstruction. One hour later, one group was given the substance to be tested and the other group was given the solvent alone. Both groups were induced later by the successive inhalation of PAF and histamine. First 1 μg of PAF and 60 minutes later the same dose of histamine as before was given. The second contact with histamine in control animals usually leads to asthmatic reactions which are three times as great as after the first contact, […]
# [2] = tested on: human peripheral leukocytes; assay: Inhibition of histamine release from human peripheral leukocytes; type: cell-based; details: for inhibition at 0.1 µg/mL / inhibition at 1 µg/mL / inhibition at 10 µg/mL / inhibition at 100 µg/mL: Homo sapiens, Leukocyte; for inhibition at 0.1 µg/mL: 0.0001 mg/ml; for inhibition at 1 µg/mL: 0.001 mg/ml; for inhibition at 10 µg/mL: 0.01 mg/ml; for inhibition at 100 µg/mL: 0.1 mg/ml
# Method: Venous blood was withdrawn from atopic donors and the peripheral leukocytes were obtained by means of dextran sedimentation. The purified cells were preincubated with three or four different concentrations of the substance to be tested and with the solvent alone. After 10 minutes, rabbit antihuman IgE antibodies, plasma containing anaphylatoxin (C5a) according to Vallota and Muller-Eberhard, calcium ionophore or saline solution were added to the cells. 30 minutes later, the reaction was stopped and the histamine concentration was measured in the […] by means of spectrofluorometry.
# The results are shown in table 1 with the inhibition of the histamine release shown in percent of the maximal release by perchloric acid, corrected by the spontaneous release without stimulation.
# [3] = tested on: allergic bronchial asthma (ovalbumin inhalation); assay: Asthma-protective action in guinea pigs: allergic (ovalbumin-induced) bronchial asthma (inhalation, dual-chamber body plethysmograph); type: in vivo, guinea pig
# Method: as §1, §2, §3, §4
# Ovalbumin, histamine and acetylcholine were dissolved in saline solution; PAF was first dissolved in ethanol and then in saline solution containing 0.25% of bovine serum albumin to a final concentration of 1 μg PAF per ml. […]
# [4] = A 12387 (calcium ionophore) stimulus
# [5] = oral dose of 10 mg/kg body weight
SMILES,effects on PAF-induced and allergic reactions compared with androsin (in words) [1],"inhibition at 0.1 µg/mL [2, 4] [%]","inhibition at 1 µg/mL [2, 4] [%]","inhibition at 10 µg/mL [2, 4] [%]","inhibition at 100 µg/mL [2, 4] [%]",inhibition at 0.1 µg/mL ([2]; C5a stimulus) [%],inhibition at 1 µg/mL ([2]; C5a stimulus) [%],inhibition at 10 µg/mL ([2]; C5a stimulus) [%],inhibition at 100 µg/mL ([2]; C5a stimulus) [%],inhibition at 0.1 µg/mL ([2]; α-IgE stimulus) [%],inhibition at 1 µg/mL ([2]; α-IgE stimulus) [%],inhibition at 10 µg/mL ([2]; α-IgE stimulus) [%],inhibition at 100 µg/mL ([2]; α-IgE stimulus) [%],inhibition of histamine release in vitro (in words) ([2]; in vitro experiment of table 1),"reduction of PAF-induced reactions ([1]; aerosol, 0.5 mg/animal) [%]","reduction of PAF-induced bronchial asthma in vivo [1, 5] [%]","reduction of allergic reactions ([3]; aerosol, 0.5 mg/animal) [%]","reduction of allergic bronchial asthma in vivo [3, 5] [%]"
"COc1ccc(C(=O)CO)c(OC)c1 [2,4-dimethoxy-2-hydroxyacetophenone]","Essentially, the same effects are achieved",–,–,–,–,–,–,–,–,–,–,–,–,–,–,–,–,–
"COc1cc(C(C)=O)ccc1O[C@@H]1O[C@H](CO)[C@@H](O)[C@H](O)[C@H]1O [Androsin, androsin]",–,-3.6,-0.4,-14.9,-12.5,-5.4,-4.5,3.7,-4.3,2.8,0.5,5.5,10.9,not effective,72,72,67,67
COc1cc(C(C)=O)ccc1O [apocynin],"Essentially, the same effects are achieved",–,–,–,–,–,–,–,–,–,–,–,–,–,–,–,–,–
